Some test systems named below: NCI-H23 lung; IGROV1 ovarian; RPMI-8226 leukemia; ACHN renal; OVCAR-8 ovarian; RXF 393 renal; SN12C renal; UO-31 renal; COLO 205 colon; SK-MEL-5 melanoma; CCRF-CEM leukemia; MALME-3M melanoma; SK-MEL-28 melanoma; SR leukemia; NCI/ADR-RES ovarian; T-47D breast; DU-145 prostate.
What all share (test): NCI-60 cell line screen, 48 h

Results on 15 molecules are retold here after PubChem BioAssay (NCI).

Each structure is given as a SMILES string.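 48-hour exposure; five concentrations; linearly interpolated endpoints. GI50 marks 50% less growth. At the TGI there is no net growth.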

`CCCN(CCC)C1=Nc2ccccc2-n2cnnc2C1`: the TGI in the experiment with NCI-H23 lung, in the experiment on IGROV1 ovarian, in the experiment on RPMI-8226 leukemia, in the experiment with ACHN renal, with OVCAR-8 ovarian and in the experiment with RXF 393 renal was > 100 µM in each case. Further, the TGI with SN12C renal, in the experiment with UO-31 renal, with COLO 205 colon, in the experiment with SK-MEL-5 melanoma, in the experiment with CCRF-CEM leukemia and in the experiment on MALME-3M melanoma was > 100 µM in each case. The TGI in the experiment on SK-MEL-28 melanoma and in the experiment on SR leukemia was > 100 µM each time.
Consider `COC(=O)C1(C)NCCc2c1[nH]c1ccccc21` (configuration not stated), for which the TGI in the experiment on NCI-H23 lung, with IGROV1 ovarian, in the experiment on RPMI-8226 leukemia, in the experiment with OVCAR-8 ovarian, in the experiment on RXF 393 renal and in the experiment with SN12C renal was > 100 µM each time. Besides, the TGI in the experiment with UO-31 renal, in the experiment with COLO 205 colon, with SK-MEL-5 melanoma, in the experiment with CCRF-CEM leukemia, in the experiment with MALME-3M melanoma and in the experiment on SK-MEL-28 melanoma was > 100 µM throughout. For the same molecule, the TGI in the experiment on SR leukemia was > 100 µM.
Consider `COc1ccc(-c2cc(=O)c3c(O)cc(O)cc3o2)c(OC)c1OC`, for which the TGI in the experiment on NCI-H23 lung, with IGROV1 ovarian, in the experiment with RPMI-8226 leukemia, with RXF 393 renal, in the experiment on SN12C renal and in the experiment on COLO 205 colon was > 100 µM throughout. Besides, the TGI in the experiment on CCRF-CEM leukemia, in the experiment with MALME-3M melanoma and in the experiment with SK-MEL-28 melanoma was > 100 µM in each case.
For the molecule `COC(=O)C1=C(CCC[C@H](C)O[Si](C)(C)C(C)(C)C)NC(=O)N2[C@@H](CCO)CC[C@H]12`, the TGI with NCI-H23 lung came to 27.2 µM; in the experiment on IGROV1 ovarian, 31.8 µM; in the experiment on RPMI-8226 leukemia it was 53.6 µM; in the experiment with NCI/ADR-RES ovarian, 29.1 µM; in the experiment on ACHN renal, 30.3 µM; with OVCAR-8 ovarian, 29.5 µM. Moreover, the TGI in the experiment on RXF 393 renal was 27.5 µM; in the experiment with T-47D breast it was 32.9 µM; in the experiment with SN12C renal, 29.2 µM; in the experiment on UO-31 renal it was 29.7 µM; in the experiment with DU-145 prostate, 44.4 µM; in the experiment on COLO 205 colon it was 34 µM. In addition, the TGI in the experiment with SK-MEL-5 melanoma stood at 21 µM; with MALME-3M melanoma, 25.9 µM; in the experiment with SK-MEL-28 melanoma it was 35.5 µM.
Regarding `COc1cc(C=O)cc(O)c1O`, the TGI with NCI-H23 lung, with IGROV1 ovarian, in the experiment with RPMI-8226 leukemia, in the experiment on ACHN renal, in the experiment with OVCAR-8 ovarian and with SN12C renal was > 100 µM each time. The TGI with UO-31 renal, in the experiment on COLO 205 colon, with CCRF-CEM leukemia, with MALME-3M melanoma, in the experiment on SK-MEL-28 melanoma and in the experiment on SR leukemia was > 100 µM in each case.
`N#Cc1ccc(C2NN=CC23C(=O)c2ccccc2OC3c2ccccc2)cc1` (configuration not stated): the TGI in the experiment with NCI-H23 lung is > 100 µM; in the experiment with IGROV1 ovarian, > 100 µM; in the experiment with RPMI-8226 leukemia it was 61.4 µM; in the experiment on NCI/ADR-RES ovarian it was > 100 µM; with ACHN renal it was > 100 µM; with OVCAR-8 ovarian, > 100 µM. In addition, the TGI is > 100 µM in the experiment on RXF 393 renal; > 100 µM with SN12C renal; 96.8 µM with UO-31 renal; > 100 µM with DU-145 prostate; 38 µM in the experiment on COLO 205 colon; 74.8 µM in the experiment with SK-MEL-5 melanoma. The TGI with CCRF-CEM leukemia, in the experiment with MALME-3M melanoma, in the experiment with SK-MEL-28 melanoma and with SR leukemia was > 100 µM in each case.
Take `CC1=C2C3OC(=O)C(C)C3CCC2(C)C=CC1=Nc1ccccc1` (configuration not stated): the TGI with NCI-H23 lung, with IGROV1 ovarian, in the experiment with NCI/ADR-RES ovarian, in the experiment with OVCAR-8 ovarian, with RXF 393 renal and with SN12C renal was > 100 µM each time. The TGI with UO-31 renal, in the experiment on COLO 205 colon, in the experiment on SK-MEL-5 melanoma, in the experiment with CCRF-CEM leukemia, in the experiment on MALME-3M melanoma and with SK-MEL-28 melanoma was > 100 µM throughout.
On to `CN(C(=O)c1ccc(OCCCC(=O)O)c(Cl)c1Cl)C1CCCC1`, for which the TGI with NCI-H23 lung, with IGROV1 ovarian, with RPMI-8226 leukemia, in the experiment on NCI/ADR-RES ovarian, in the experiment with OVCAR-8 ovarian and in the experiment with RXF 393 renal was > 100 µM throughout. Also, the TGI in the experiment on SN12C renal, with UO-31 renal, with COLO 205 colon, in the experiment with SK-MEL-5 melanoma, with CCRF-CEM leukemia and in the experiment on MALME-3M melanoma was > 100 µM each time. The TGI in the experiment on SK-MEL-28 melanoma is > 100 µM.
For the molecule `O=c1c([OH2+])c(-c2ccc(O)cc2[O-])oc2cc(O)cc([O-])c12.O=c1c([OH2+])c(-c2ccc(O)cc2[O-])oc2cc(O)cc([O-])c12.[Ti+4]`, the TGI with NCI-H23 lung, in the experiment on IGROV1 ovarian, in the experiment on RPMI-8226 leukemia, with ACHN renal, in the experiment with OVCAR-8 ovarian and in the experiment on RXF 393 renal was > 100 µM in each case. For the same molecule, the TGI in the experiment with SN12C renal, in the experiment with UO-31 renal, with COLO 205 colon, in the experiment with SK-MEL-5 melanoma, in the experiment with CCRF-CEM leukemia and with MALME-3M melanoma was > 100 µM each time. Further, the TGI in the experiment with SK-MEL-28 melanoma was > 100 µM. Moreover, the GI50 in the experiment with RPMI-8226 leukemia and with RXF 393 renal was > 100 µM in each case.
Regarding `C=C1Cc2cc(OC)c(OC)c(OC)c2-c2ccc(SC)c(=O)cc21`, the TGI in the experiment on NCI-H23 lung was determined as 2.11 µM; in the experiment on IGROV1 ovarian it was 7.66 µM; in the experiment with RPMI-8226 leukemia it was 14.7 µM; in the experiment with ACHN renal, 6.2 µM; in the experiment on RXF 393 renal it was 10.4 µM; in the experiment with SN12C renal it was 1.6 µM. Further, the TGI with UO-31 renal was 6.96 µM; in the experiment on COLO 205 colon, < 0.0318 µM; with SK-MEL-5 melanoma, 13.3 µM; with CCRF-CEM leukemia, 6.85 µM; with MALME-3M melanoma it was 2.57 µM; in the experiment with SK-MEL-28 melanoma it was 7.88 µM. For the same molecule, in the experiment with SR leukemia, the TGI was > 100 µM.
As to `CCOC(=O)C1(Br)S(=O)(=O)OCCOS1(=O)=O`, the TGI in the experiment with NCI-H23 lung, with IGROV1 ovarian, in the experiment on RPMI-8226 leukemia, in the experiment on ACHN renal, with OVCAR-8 ovarian and with RXF 393 renal was > 100 µM throughout. The TGI with SN12C renal, with UO-31 renal, in the experiment on COLO 205 colon, in the experiment with SK-MEL-5 melanoma, with CCRF-CEM leukemia and in the experiment with MALME-3M melanoma was > 100 µM throughout. Also, the TGI with SK-MEL-28 melanoma and in the experiment on SR leukemia was > 100 µM each time.
Regarding `CN(C(=O)c1ccco1)C(=S)N1CCN(c2ccccn2)CC1`, the TGI in the experiment on NCI-H23 lung, in the experiment with IGROV1 ovarian, in the experiment on RPMI-8226 leukemia, in the experiment with ACHN renal, in the experiment on OVCAR-8 ovarian and in the experiment with RXF 393 renal was > 100 µM each time. Besides, the TGI with SN12C renal, in the experiment on UO-31 renal, in the experiment on COLO 205 colon, in the experiment with SK-MEL-5 melanoma, in the experiment on CCRF-CEM leukemia and in the experiment on MALME-3M melanoma was > 100 µM in each case. For the same molecule, the TGI in the experiment on SK-MEL-28 melanoma is > 100 µM.
Regarding `O=c1c2c(c1=O)-c1ccccc1CN2`, the TGI in the experiment with NCI-H23 lung, in the experiment with IGROV1 ovarian, in the experiment on RPMI-8226 leukemia, in the experiment with ACHN renal, in the experiment on OVCAR-8 ovarian and with RXF 393 renal was > 100 µM in each case. For the same molecule, the TGI in the experiment with SN12C renal, in the experiment with UO-31 renal, in the experiment on COLO 205 colon, in the experiment with SK-MEL-5 melanoma, in the experiment on CCRF-CEM leukemia and in the experiment on MALME-3M melanoma was > 100 µM each time. The TGI in the experiment with SK-MEL-28 melanoma is > 100 µM.
On to `COC(=O)C1C=CCON2CCc3c(n(S(=O)(=O)c4ccccc4)c4ccccc34)C12` (configuration not stated), for which the TGI in the experiment on NCI-H23 lung was > 100 µM; in the experiment with IGROV1 ovarian it was > 68.2 µM; with RPMI-8226 leukemia it was > 36 µM; in the experiment on ACHN renal, > 100 µM; in the experiment with OVCAR-8 ovarian it was > 100 µM; in the experiment with RXF 393 renal it was > 100 µM. Also, the TGI is > 100 µM in the experiment on SN12C renal; > 100 µM in the experiment on UO-31 renal; > 68.9 µM in the experiment on COLO 205 colon; > 58.4 µM with SK-MEL-5 melanoma; > 71.1 µM in the experiment with CCRF-CEM leukemia; > 100 µM in the experiment on MALME-3M melanoma. The TGI with SK-MEL-28 melanoma and with SR leukemia was > 100 µM throughout.
Consider `O=c1c2cc(I)ccc2nc(-c2cccs2)n1/N=C/c1ccccc1`, for which the TGI with NCI-H23 lung, in the experiment with IGROV1 ovarian, in the experiment on RPMI-8226 leukemia, with NCI/ADR-RES ovarian, in the experiment on ACHN renal and in the experiment on OVCAR-8 ovarian was > 100 µM in each case. Besides, the TGI with RXF 393 renal, in the experiment on T-47D breast, in the experiment with SN12C renal, in the experiment on UO-31 renal, with DU-145 prostate and with COLO 205 colon was > 100 µM in each case. Moreover, the TGI in the experiment with SK-MEL-5 melanoma, in the experiment with CCRF-CEM leukemia, with SK-MEL-28 melanoma and in the experiment on SR leukemia was > 100 µM each time.
